In patent publication US20120283216A1, “FUNGICIDAL 2-(BICYCLIC ARYLOXY)CARBOXAMIDES” (priority 2009, published 2012):

Columns and labels:
Assay type in all cases: in vivo
[1] = tested on: Blumeria graminis f. sp. tritici; experiment: Test A: wheat powdery mildew, preventive spray on wheat seedlings, visual disease rating; conditions: preventive spray at 40 ppm, rated 8 days after inoculation; for pest or weed control at 40 ppm: Blumeria graminis, 192 h, read-out: Test A disease control rating (100 = 100% disease control, 0 = no disease control relative to the controls)
In short: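 Wheat seedlings sprayed to run-off with 40 ppm compound (equivalent to 800 g/ha) in acetone/water with 250 ppm surfactant, then dusted with B. graminis spores next day. Held at 20° C. for 8 days before visual rating, 0–100 scale as % disease control relative to controls.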

Septoria tritici = experiment: Test B: wheat leaf blotch, preventive spray on wheat seedlings, visual disease rating; conditions: preventive spray at 40 ppm, rated after 48 h + 19 days; for pest or weed control at 40 ppm: Zymoseptoria tritici, 504 h, read-out: Test B disease control rating (100 = 100% disease control, 0 = no disease control relative to the controls)
In short: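 Wheat seedlings were sprayed to run-off with 40 ppm compound (≈800 g/ha) in acetone/water with 250 ppm surfactant, then inoculated with Septoria tritici spores the next day. After 48 h saturated humidity at 20° C and 19 days in a growth chamber at 20° C, disease control was rated visually (0–100% vs controls).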

Botrytis cinerea = experiment: Test C: tomato botrytis, preventive spray on tomato seedlings, visual disease rating; conditions: preventive spray at 40 ppm, rated after 48 h + 3 days; for pest or weed control at 40 ppm: Botrytis cinerea, 120 h, read-out: Test C disease control rating (100 = 100% disease control, 0 = no disease control relative to the controls)
In short: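 Compounds applied at 40 ppm (≈800 g/ha) in acetone/water with surfactant, sprayed to run-off on tomato seedlings. Inoculated next day with B. cinerea spores; 48 h saturated humidity at 20 °C, then 3 days at 27 °C. Visual rating as % disease control versus untreated controls.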

Row | SMILES | Test A disease control rating (100 = 100% disease control, 0 = no disease control relative to the controls) [1] [%] | Test B disease control rating (100 = 100% disease control, 0 = no disease control relative to the controls) (Septoria tritici) [%] | Test C disease control rating (100 = 100% disease control, 0 = no disease control relative to the controls) (Botrytis cinerea) [%] | pest or weed control at 40 ppm [1] [%] | pest or weed control at 40 ppm (Septoria tritici) [%] | pest or weed control at 40 ppm (Botrytis cinerea) [%]
1 | CCC(Oc1ccc2ccc(OC)cc2c1)C(=O)NC(C)(C)COC (stereo not drawn) [Compound 88] | 99 | 100 | 100 | – | – | –
2 | CCC(Oc1ccc2ccc(OCOC)cc2c1)C(=O)NC(C)(C)C#N (stereo not drawn) [Compound 72] | 0 | 99 | 100 | – | – | –
3 | CCOc1ccc2ccc(OC(CC)C(=O)NC(C)(C)C#N)cc2c1 (stereo not drawn) [Compound 75, N-(1-cyano-1-methylethyl)-2-[(7-ethoxy-2-naphthalenyl)oxy]butanamide] | – | – | – | 100 | 100 | 100
4 | C#CC(C)(C)NC(=O)C(OCC)Oc1ccc2ccc(OCC)cc2c1 (stereo not drawn) [Compound 122] | 0 | 100 | 98 | – | – | –
5 | C#CC(C)(C)NC(=O)C(CC)Oc1ccc2ccc(OCC)cc2c1 (stereo not drawn) [Compound 76, N-(1,1-dimethyl-2-propyn-1-yl)-2-[(7-ethoxy-2-naphthalenyl)oxy]butanamide] | – | – | – | 100 | 100 | 100
6 | CCC(Oc1cnc2ccc(F)cc2c1)C(=O)NC1(C#N)CC1 (stereo not drawn) [Compound 46] | 0 | 0 | 0 | – | – | –
7 | CCC(Oc1cnc2ccc(I)cc2c1)C(=O)NC(C)(C)COC (single isomer, unassigned) [Compound 62] | 0 | 0 | 7 | – | – | –
8 | CCC(Oc1cnc2ccc(Cl)cc2c1)C(=O)NC(C)(C)COC (stereo not drawn) [Compound 49] | 96 | 99 | 98 | – | – | –
9 | CCc1ccc2ccc(OC(CC)C(=O)NC(C)(C)COC)cc2c1 (stereo not drawn) [Compound 138, 2-[(7-ethyl-2-naphthalenyl)oxy]-N-(2-methoxy-1,1-dimethylethyl)-butanamide] | – | – | – | 99 | 83 | 100
10 | C#CC(C)(C)NC(=O)C(CC)Oc1cnc2ccc(F)cc2c1 (stereo not drawn) [Compound 47] | 0 | 20 | 70 | – | – | –
11 | CCC(Oc1ccc2ccc(C)cc2c1)C(=O)NC(C)(C)COC (stereo not drawn) [Compound 159, N-(2-methoxy-1,1-dimethylethyl)-2-[(7-methyl-2-naphthalenyl)oxy]-butanamide] | – | – | – | 99 | 13 | 99
12 | COC(Oc1ccc2ccc(I)cc2c1)C(=O)NC(C)(C)C#N (stereo not drawn) [Compound 104] | 94 | 100 | 99 | – | – | –
13 | COC(Oc1ccc2ccc(Br)cc2c1)C(=O)NC(C)(C)C#N (stereo not drawn) [Compound 93] | 95 | 100 | 100 | – | – | –
14 | C#Cc1ccc2ncc(OC(CC)C(=O)NC(C)(C)CC)cc2c1 (stereo not drawn) [Compound 150] | 96 | 100 | 97 | – | – | –
15 | C#CC(C)(C)NC(=O)C(OC)Oc1cnc2ccc(I)cc2c1 (stereo not drawn) [Compound 63, N-(1,1-dimethyl-2-propyn-1-yl)-2-[(6-iodo-3-quinolinyl)oxy]-2-methoxy-acetamide] | – | – | – | 93 | 99 | 99
16 | C#CCOc1ccc2ccc(OC(CC)C(=O)NC(C)(C)C)cc2c1 (stereo not drawn) [Compound 134] | 43 | 100 | 100 | – | – | –
17 | CCOC(Oc1ccc2ccc(Br)cc2c1)C(=O)NC(C)(C)COC (stereo not drawn) [Compound 118] | 0 | 97 | 97 | – | – | –
18 | CCOc1ccc2ccc(OC(OC)C(=O)NC(C)(C)COC)cc2c1 (stereo not drawn) [Compound 70] | 100 | 100 | 98 | – | – | –
19 | CCOc1ccc2ccc(OC(CC)C(=O)NC(C)(C)C)cc2c1 (stereo not drawn) [Compound 74, N-(1,1-dimethylethyl)-2-[(7-ethoxy-2-naphthalenyl)oxy]butanamide] | – | – | – | 100 | 100 | 100
20 | CCC(Oc1ccc2ccc(C#N)cc2c1)C(=O)NC(C)(C)COC (stereo not drawn) [Compound 21] | 91 | 99 | 99 | – | – | –
21 | C#CCOc1ccc2ccc(OC(CC)C(=O)NC(C)(C)COC)cc2c1 (stereo not drawn) [Compound 133] | 74 | 99 | 100 | – | – | –
22 | C#CCOc1ccc2ccc(OC(OC)C(=O)NC(C)(C)COC)cc2c1 (stereo not drawn) [Compound 130] | 21 | 98 | 100 | – | – | –
23 | C#CC(C)(C)NC(=O)C(CC)Oc1ccc2ccc(OC(F)F)cc2c1 (stereo not drawn) [Compound 6] | 98 | 100 | 100 | – | – | –
24 | CCC(Oc1ccc2ccc(Br)cc2c1)C(=O)NC(C)(C)C(F)(F)F (stereo not drawn) [Compound 27] | 99 | 86 | 98 | – | – | –
25 | CCOC(Oc1ccc2ccc(OC)cc2c1)C(=O)NC(C)(C)COC (stereo not drawn) [Compound 113] | 97 | 100 | 99 | – | – | –
26 | CCC(Oc1cnc2ccc(Br)cc2c1)C(=O)NC(C)(C)COCOC (stereo not drawn) [Compound 58] | 99 | 100 | 99 | – | – | –
27 | CC#Cc1ccc2ncc(OC(OC)C(=O)NC(C)(C)C)cc2c1 (stereo not drawn) [Compound 156, N-(1,1-dimethylethyl)-2-methoxy-2-[[6-(1-propyn-1-yl)-3-quinolinyl]oxy]-acetamide] | – | – | – | 98 | 96 | 99
28 | C#CC(C)(C)NC(=O)C(CC)Oc1cnc2ccc(Br)cc2c1 (stereo not drawn) [Compound 38] | 21 | 100 | 99 | – | – | –
29 | CCOC(Oc1ccc2ccc(OC)cc2c1)C(=O)NC(C)(C)CC (stereo not drawn) [Compound 117] | 0 | 93 | 98 | – | – | –
30 | CCC(Oc1ccc2ccc(Br)cc2c1)C(=O)NC(C)(C)CN=CN(C)C (stereo not drawn) [Compound 15, 2-[(7-bromo-2-naphthalenyl)oxy]-N-[2-[[(dimethylamino)methylene]amino]-1,1-dimethylethyl]butanamide] | – | – | – | 43 | 100 | 100
